Assays:
[1] = system: potatoes of the variety Bintje; assay: Fogging trial in potato storage cabins, sprout index (PCA scale); type: in vivo, Solanum tuberosum; conditions: fogging every 3 weeks during storage, PCA scale 1-9
Method: The storage system was designed to duplicate a large commercial storage facility in miniature. It consisted of 4 test cabins, with room for 4 boxes per level. In total there were 7 levels, and the boxes were placed in a stair-pattern, in clock-wise direction. Each cabin could be used to store up to 560 kg of potatoes per cabin. The dimensions of a cabin are depicted in FIG. 1.
During storage the air temperature within the storage system was kept between 5.0° C. and 9.5° C. The relative humidity was kept between 87% and 100%.
The application equipment used for hot fogging was IGEBA TF-35. The application equipment used for cold fogging was VEUGEN, type: FOGCOL. The operation pressure was 3.3 bar. […]
Around 15 minutes before treatment, Automatic Regulation was switched off and Manual Internal Ventilation was switched on (Force III). […] Note: Ventilation Force III means ˜900 m^3/h. • As the exact weight of tubers in the cell was known, the exact quantity of formulated product was calculated and prepared. • During spraying/fogging and till around 15 minutes after spraying, Internal • Ventilation was kept switched on (Force III) to assure a good contact between product and tubers. • Around 15 minutes after spraying, Internal Ventilation was switched off • The day after (minimum 12 hours after end of spraying) Automatic Regulation was switched on till next application or till end of trial […]

potatoes = conditions: hot fogging; cited from earlier work

Compound | sprout growth (sprout index, FIG. 2) [1] | anti-sprouting efficacy in combination with CIPC (potatoes)
C=C(C)C1CC=C(C)CC1 (centres unmarked) [Limonene, 1-methyl-4-(1-methylethenyl)-cyclohexene] | did not have any effect on sprout growth | –
C=C(C)C1CC=C(C)C(=O)C1 (centres unmarked) [carvone] | – | good result
